Source: US20140179681A1, “METHODS AND COMPOSITIONS OF TARGETED DRUG DEVELOPMENT” (priority 2010, published 2014)
Counter-ions that a name gives are not always drawn. Like-named read-outs stand apart in the source and are kept apart here.

How the values were obtained:
[1] = test system: epithelial carcinoma A431 cell line; experiment: MTT Cell Proliferation Assay, A431 cells; format: cell-based; conditions: for MTT Assay IC50(A431/MDBK): ratio in parentheses: ratio MDBK IC50 / A431 IC50 (selectivity)
Procedure, shortened: (§1)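 Viability was measured by mitochondrial MTT reduction after cells were exposed to compound for 3 days in reduced-serum medium. Inhibition was calculated per plate against 0.5% DMSO controls.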

EGFR = molecular target: T1, EGFR (Homo sapiens, UniProt P00533); experiment: EGFR in-cell Western (ICW) screening protocol (EGFR inhibition assay); format: cell-based; set-up: ICW 1 / ICW 2 / ICW Avg: unit not given here; conditions: for ICW Screen: Table 11; for ICW Screen / ICW assay: % Inhibition of EGF dependent EGFR phosphorylation in A431 cells, compound 125 μM in assay; for ICW Avg / ICW 1 / ICW 2: ICW assay; for ICW Avg: average of runs 1 and 2; for ICW 1: run 1; for ICW 2: run 2; for ICW assay: Table 10
T1 construct: host or cells: A431
T1 sequence (P00533 25-1210): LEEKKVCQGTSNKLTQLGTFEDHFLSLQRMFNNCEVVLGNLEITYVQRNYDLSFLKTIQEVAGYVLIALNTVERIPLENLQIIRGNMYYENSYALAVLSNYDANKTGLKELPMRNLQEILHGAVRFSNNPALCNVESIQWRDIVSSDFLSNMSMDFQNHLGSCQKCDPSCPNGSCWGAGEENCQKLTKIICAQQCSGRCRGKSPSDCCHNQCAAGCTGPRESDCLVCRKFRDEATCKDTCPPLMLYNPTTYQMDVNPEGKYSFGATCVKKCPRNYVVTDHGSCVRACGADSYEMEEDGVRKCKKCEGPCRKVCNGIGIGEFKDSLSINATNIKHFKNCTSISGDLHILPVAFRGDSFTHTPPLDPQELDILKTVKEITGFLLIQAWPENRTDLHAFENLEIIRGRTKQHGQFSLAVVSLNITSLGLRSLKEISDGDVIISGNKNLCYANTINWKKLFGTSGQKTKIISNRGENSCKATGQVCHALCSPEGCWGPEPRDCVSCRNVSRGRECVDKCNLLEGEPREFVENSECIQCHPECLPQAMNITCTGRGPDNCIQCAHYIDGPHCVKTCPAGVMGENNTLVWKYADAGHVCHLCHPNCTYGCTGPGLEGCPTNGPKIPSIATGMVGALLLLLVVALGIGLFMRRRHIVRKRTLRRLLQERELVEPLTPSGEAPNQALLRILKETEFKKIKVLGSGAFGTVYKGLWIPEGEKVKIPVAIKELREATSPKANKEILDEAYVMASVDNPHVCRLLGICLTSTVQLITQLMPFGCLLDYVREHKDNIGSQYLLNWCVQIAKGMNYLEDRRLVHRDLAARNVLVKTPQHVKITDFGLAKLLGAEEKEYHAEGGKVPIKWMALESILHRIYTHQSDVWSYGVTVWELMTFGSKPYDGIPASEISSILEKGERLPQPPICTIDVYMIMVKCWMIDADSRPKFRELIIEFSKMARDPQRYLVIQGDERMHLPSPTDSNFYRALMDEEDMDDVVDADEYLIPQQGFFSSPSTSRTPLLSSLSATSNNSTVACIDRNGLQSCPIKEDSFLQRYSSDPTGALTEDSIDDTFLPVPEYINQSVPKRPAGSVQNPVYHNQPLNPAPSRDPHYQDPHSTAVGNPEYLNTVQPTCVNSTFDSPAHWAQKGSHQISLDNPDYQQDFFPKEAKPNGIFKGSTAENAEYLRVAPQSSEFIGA
Procedure, shortened: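 Serum-starved A431 cells (2 h) were pretreated with compound for 4 h at 37° C, then stimulated with EGF (10 ng/ml final, or 6.6 or 12.5 ng/ml in some runs) for 10 min. After formaldehyde fixation, phospho-EGFR (Tyr1173, or Tyr1045 in some runs) and total EGFR were detected by in-cell Western immunostaining.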

MDBK line = experiment: MTT Cell Proliferation Assay, MDBK cells; format: cell-based, bovine
Procedure, shortened: as §1

[2] = Homo sapiens, A-431, first value of 'a/b (c)', taken as A431 cells, read-out: MTT Screen, first value of cell
[3] = Bos taurus, MDBK, second value of 'a/b (c)', taken as MDBK cells, read-out: MTT Screen, second value of cell
[4] = A431 cells, first value of cell, read-out: MTT Assay IC50(A431/MDBK): A431
[5] = MDBK cells, second value of cell, read-out: MTT Assay IC50(A431/MDBK): MDBK
[6] = first value of 'a/b (c)', taken as A431 cells, read-out: MTT Screen, first value of cell
[7] = Homo sapiens, A-431, 72 h, Table 10, first of x/y(ratio): A431, three day treatment, unit not printed (doses in μM), read-out: MTT assay (first value)
[8] = Bos taurus, MDBK, 72 h, Table 10, second of x/y(ratio): MDBK, three day treatment, unit not printed (doses in μM), read-out: MTT assay (second value)
[9] = Homo sapiens, A-431, A431 cells, first value of cell, read-out: MTT Assay IC50(A431/MDBK): A431
[10] = Bos taurus, MDBK, MDBK cells, second value of cell, read-out: MTT Assay IC50(A431/MDBK): MDBK

Row | SMILES | IC50 [1, 2] [µM] | ICW Screen (ICW Inhibition) (EGFR) | ICW Avg (EGFR) | ICW 1 (EGFR) | ICW 2 (EGFR) | IC50 (MDBK line; [3]) [µM] | other results
1 | COc1ccc(N2CCN(Cc3cc(=O)oc4c(C)c(O)ccc34)CC2)cc1 [AD4-10217] | – | – | – | – | – | – | IC50 ([1]; Homo sapiens, A-431, 72 h, Table 11, first of x/y(ratio): A431, unit not printed (doses in μM), read-out: MTT Screen (first value)): 14 µM; ICW Screen (EGFR): −1.007; MTT Screen (second value) (MDBK line; Table 11, second of x/y(ratio): MDBK, unit not printed (doses in μM)): non-convergent
2 | CCc1c(C)nc(Nc2nc(C)c3ccc(C)cc3n2)[nH]c1=O [12665 + TFA] | – | – | 44.17 | 51.06 | 37.29 | – | IC50 [1, 4]: 17.5 µM; MTT Assay IC50(A431/MDBK): ratio in parentheses [1]: 0.98; IC50 (MDBK line; [5]): 17.2 µM
3 | Cc1ccc(NS(=O)(=O)c2ccc(NC(=S)NC(=O)C3CCC3)cc2)cc1C [AD4-10676] | – | 59.637 | – | – | – | 8.84 | IC50 [1, 6]: 18.6 µM
4 | O=C(NC(=S)Nc1ccc(S(=O)(=O)Nc2ccccc2)cc1)c1ccco1 [AD4-10705] | 23.1 | 47.764 | – | – | – | 25.2 | –
5 | O=C(NC(=S)Nc1ccc(S(=O)(=O)NCCc2ccccc2)cc1)C1CC1 [AD4-10120] | 22.8 | 39.873 | – | – | – | 39.3 | –
6 | Cc1cc(Cl)ccc1OCC(=O)NC(=S)Nc1ccc(S(=O)(=O)N2CCCCC2)cc1 [AD4-11402] | 11.8 | 33.635 | – | – | – | 17.4 | –
7 | Cc1cc(C)c(NS(=O)(=O)c2ccc(NC(=S)Nc3ccccc3F)cc2)c(C)c1 [AD4-12395] | – | – | – | – | – | – | IC50 [1, 7]: 7.92 µM; ICW assay (EGFR): 57.5206; IC50 (MDBK line; [8]): 6.96 µM
8 | C=CCc1c(C)nc(Nc2nc(C)c3ccccc3n2)[nH]c1=O [12610 + TFA] | – | – | 31.33 | 41.25 | 21.42 | – | IC50 [1, 9]: 50.4 µM; MTT Assay IC50(A431/MDBK): ratio in parentheses [1]: 0.39; IC50 (MDBK line; [10]): 19.6 µM
9 | COc1ccc(NS(=O)(=O)c2ccc(NC(=S)NC(=O)C(C)C)cc2)cc1 [AD4-11971] | 41.5 | 44.908 | – | – | – | 41.1 | –
10 | Cc1nc(Nc2ncc3c(n2)CC(c2ccco2)CC3=O)nc2ccccc12 (stereo not drawn) [11679 + TFA] | – | – | 25.83 | 31.02 | 20.64 | – | IC50 [1, 9]: 12.6 µM; MTT Assay IC50(A431/MDBK): ratio in parentheses [1]: 0.70; IC50 (MDBK line; [10]): 8.73 µM
11 | Cc1ccc2nc(Nc3nc(CCC(C)C)cc(=O)[nH]3)nc(C)c2c1 [11795 + TFA] | – | – | 33.52 | 35.23 | 31.81 | – | IC50 [1, 9]: 26.8 µM; MTT Assay IC50(A431/MDBK): ratio in parentheses [1]: 0.48; IC50 (MDBK line; [10]): 12.9 µM
12 | O=S(=O)(Nc1cc(Cl)cc(Cl)c1)c1ccc(NC(=S)Nc2ccc(Cl)c(Cl)c2)cc1 [AD4-12528] | – | – | – | – | – | – | IC50 [1, 7]: 5.43 µM; ICW assay (EGFR): 123.946; IC50 (MDBK line; [8]): 5.3 µM
13 | O=S(=O)(Nc1ccccc1)c1ccc(NC(=S)Nc2ccc(Cl)c(Cl)c2)cc1 [AD4-12833] | – | – | – | – | – | – | IC50 [1, 7]: 5.94 µM; ICW assay (EGFR): 115.634; IC50 (MDBK line; [8]): 5.96 µM
14 | COc1ccc(NS(=O)(=O)c2ccc(NC(=S)NC(=O)CC(C)C)cc2)cc1 [AD4-12040] | 17.1 | 47.822 | – | – | – | 14.8 | –
15 | CCOc1ccc2nc(Nc3nc(C)c(CCC(C)C)c(=O)[nH]3)nc(C)c2c1 [12684 + TFA] | – | – | 28.28 | 40.81 | 15.75 | – | IC50 [1, 9]: 25.7 µM; MTT Assay IC50(A431/MDBK): ratio in parentheses [1]: 0.76; IC50 (MDBK line; [10]): 19.5 µM
16 | O=S(=O)(Nc1ccccc1)c1ccc(NC(=S)Nc2cccc(C(F)(F)F)c2)cc1 [AD4-12835] | – | – | – | – | – | – | IC50 [1, 7]: 6.15 µM; ICW assay (EGFR): 116.579; IC50 (MDBK line; [8]): 5.89 µM
17 | C=CCN(CC=C)S(=O)(=O)c1ccc(NC(=S)NC(=O)/C=C/c2cccs2)cc1 [AD4-11979] | 9.31 | 39.775 | – | – | – | 16.2 | –
18 | CC(C)C(=O)NC(=S)Nc1ccc(S(=O)(=O)NC2CCCCC2)cc1 [AD4-11985] | 62.5 | 40.346 | – | – | – | 39.9 | –
19 | CCCc1c(C)nc(Nc2nc(C)c3cc(C)cc(C)c3n2)[nH]c1=O [12612 + TFA] | – | – | 57.36 | 69.21 | 45.51 | – | IC50 [1, 4]: 48.5 µM; IC50 (MDBK line; [5]): 79.2 µM
20 | Cc1cc(C)c2nc(Nc3nc(=O)c(C)c(C)[nH]3)nc(C)c2c1 [12645 + TFA] | – | – | 64.97 | 60.00 | 69.95 | – | IC50 [1, 9]: 6.49 µM; MTT Assay IC50(A431/MDBK): ratio in parentheses [1]: 0.97; IC50 (MDBK line; [10]): 6.29 µM
21 | CCc1c(C)nc(Nc2nc(C)c3cccc(OC)c3n2)[nH]c1=O [12738 + TFA] | – | – | 45.35 | 53.67 | 37.02 | – | IC50 [1, 4]: 45.4 µM; MTT Assay IC50(A431/MDBK): ratio in parentheses [1]: 0.54; IC50 (MDBK line; [5]): 24.6 µM
22 | Cc1cc(C)c2oc(=O)cc(CN3CCN(Cc4ccc5c(c4)OCO5)CC3)c2c1 [AD4-10174] | – | – | – | – | – | – | IC50 ([1]; Homo sapiens, A-431, Table 11, first of x/y(ratio): A431, unit inferred, read-out: MTT Follow-up (first value)): 4.42 µM; IC50 ([1]; Homo sapiens, A-431, Table 11, first of x/y(ratio): A431, unit not printed (doses in μM), read-out: MTT Screen (first value)): 2.26 µM; ICW Screen (EGFR): 45.85; IC50 (MDBK line; Bos taurus, MDBK, Table 11, second of x/y(ratio): MDBK, unit inferred, read-out: MTT Follow-up (second value)): 101 µM; IC50 (MDBK line; Bos taurus, MDBK, Table 11, second of x/y(ratio): MDBK, unit not printed (doses in μM), read-out: MTT Screen (second value)): 8.58 µM
23 | COc1ccc(NC(=S)Nc2ccc(S(=O)(=O)Nc3ccccc3C)cc2)cc1OC [AD4-12527] | – | – | – | – | – | – | IC50 [1, 7]: 26.9 µM; ICW assay (EGFR): 31.9587; IC50 (MDBK line; [8]): 20 µM
24 | Cc1ccc(NS(=O)(=O)c2ccc(NC(=S)NC(=O)C3CCCCC3)cc2)cc1C [AD4-10708] | 16.6 | 37.233 | – | – | – | 35.9 | –
25 | Cc1nc(Nc2nc(CSc3ccccn3)cc(=O)[nH]2)nc2ccccc12 [12623 + TFA] | – | – | 28.49 | 21.11 | 35.88 | – | IC50 [1, 9]: 37.2 µM; MTT Assay IC50(A431/MDBK): ratio in parentheses [1]: 0.46; IC50 (MDBK line; [10]): 17 µM
26 | COc1cc(NS(=O)(=O)c2ccc(NC(=S)NC(=O)/C=C/c3ccco3)cc2)ncn1 [AD4-11870] | 55.1 | 30.849 | – | – | – | 47.3 | –
27 | COc1ccc(NC(=S)Nc2ccc(S(=O)(=O)Nc3cc(Cl)cc(Cl)c3)cc2)cc1OC [AD4-12481] | – | – | – | – | – | – | IC50 [1, 7]: 10.4 µM; ICW assay (EGFR): 42.006; IC50 (MDBK line; [8]): 11 µM

Second part, led by results:

Row | IC50 [1, 2] [µM] | ICW Screen (ICW Inhibition) (EGFR) | ICW Avg (EGFR) | ICW 1 (EGFR) | ICW 2 (EGFR) | SMILES | IC50 (MDBK line; [3]) [µM] | other results
28 | 38.9 | 37.375 | – | – | – | O=C(NC(=S)Nc1ccc(S(=O)(=O)NC2CCCCC2)cc1)C1CC1 [AD4-12171] | 37.1 | –
29 | 49.6 | 29.289 | – | – | – | COc1ccc(CC(=O)NC(=S)Nc2ccc(S(=O)(=O)Nc3nc(C)cc(C)n3)cc2)cc1 [AD4-12266] | 45.9 | –
30 | 38.1 | 31.19 | – | – | – | COc1ccccc1/C=C/C(=O)NC(=S)Nc1ccc(S(=O)(=O)N2CCN(C)CC2)cc1 [AD4-12265] | 35.1 | –
31 | – | – | 43.43 | 32.35 | 54.51 | CCCc1c(C)nc(Nc2nc(C)c3cc(C)cc(C)c3n2)[nH]c1=O [compound 12736] | – | IC50 [1, 4]: 7.14 µM; MTT Assay IC50(A431/MDBK): ratio in parentheses [1]: 1.38; IC50 (MDBK line; [5]): 9.82 µM
32 | – | – | 28.58 | 38.67 | 18.48 | Cc1cc(C(F)(F)F)nc(Nc2nc(C)c3ccccc3n2)n1 [compound 11457] | – | IC50 [1, 9]: 27.4 µM; MTT Assay IC50(A431/MDBK): ratio in parentheses [1]: 1.79; IC50 (MDBK line; [10]): 49 µM
33 | – | – | 50.68 | 53.35 | 48.02 | Cc1ccc2nc(Nc3nc(CSc4nnc(C)s4)cc(=O)[nH]3)nc(C)c2c1 [compound 11450] | – | IC50 [1, 9]: 6.98 µM; IC50 (MDBK line; [10]): 6.83 µM
34 | – | 36.632 | – | – | – | COc1ccc(OCC(=O)NC(=S)Nc2ccc(S(=O)(=O)Nc3cc(C)cc(C)c3)cc2)cc1 [AD4-12165] | 12 | IC50 [1, 6]: 63.6 µM
